{
  "source": "patent EP0516015A1",
  "about": "“Substituted decarestrictines, methods for their preparation and use thereof” (HOECHST AKTIENGESELLSCHAFT, priority 1991, dated 1992)",
  "key": {"Cholesterinbiosynthese": {"system": "Cholesterinbiosynthese", "assay": "Inhibition of cholesterol biosynthesis from [14C] sodium acetate in HEP-G2 cell monolayers", "type": "cell-based", "details": "Homo sapiens, HepG2, HEP-G2-Zellen, 1 h preincubation, 3 h with [14C] sodium acetate, read-out: Cholesterin in Prozent der Kontrolle; for activity at 0.01 µM: Konzentration 10⁻⁸ M", "from_the_text": "Monolayer von HEP-G2-Zellen in lipoproteinfreiem Nährmedium werden mit entsprechenden Konzentrationen der zu prüfenden Substanzen aus den Beispielen 1, 3, 4, 5, 6, 8 und 15 eine Stunde vorinkubiert. Nach Zugabe der ¹⁴C-markierten Biosynthesevorstufe [¹⁴C]Natriumacetat wird die Inkubation für 3 Stunden fortgesetzt. Danach wird ein Teil der Zellen alkalisch verseift, bei vorheriger Zugabe eines internen Standards von ³H-Cholesterin. Die Lipide der verseiften Zellen werden mit einem Gemisch aus Chloroform-Methanol extrahiert. Dieses Lipidgemisch wird nach Zusatz von Trägercholesterin präparativ dünnschichtchromatographisch aufgetrennt, die Cholesterinbande nach Anfärbung isoliert und die aus dem ¹⁴C-Precursor gebildete Menge ¹⁴C-Cholesterin szintigraphisch bestimmt. In einem aliquoten Teil der Zellen wurde Zellprotein bestimmt, sodaß die in der Zelleinheit pro mg Zellprotein aus ¹⁴C-Vorläufer gebildete Menge ¹⁴C-Cholesterin berechnet werden kann. Zum Vergleich für die Hemmwirkung eines zugesetzten Prüfpräparates dient die Kontrolle, so daß direkt die Hemmung der Cholesterinbiosynthese bei einer bestimmten molaren Konzentration des Prüfpräparates im Medium angegeben werden kann. In aliquoten Anteilen der Zellkultur wird die Intaktheit der Zellkultur und die fehlende Zellschädigung durch Präparateeinwirkung morphologisch (Lichtmikroskopie) beurteilt und biochemisch durch Bestimmung der Laktat-Dehydrogenase Ausschüttung im Inkubationsmedium gemessen. Als Standardpräparat wurde ®Lovastatin (Merck-Sharp-Dohm) benutzt."}, "in vitro": {"assay": "in vitro", "details": "hela or vero cells"}, "Vaccina": {"system": "Vaccina", "assay": "microbe, parasite or virus in culture", "type": "cell-based", "details": "72 h, read-out: MHK"}, "Herpes II": {"system": "Herpes II", "assay": "Antiviral activity in cell culture (CPE, neutral red uptake)", "type": "cell-based", "details": "HeLa or Vero cells, 72 h, MHK = concentration at which about 50 % of the cells survived the infection"}, "Influenza A": {"system": "Influenza A", "assay": "microbe, parasite or virus in culture", "type": "cell-based", "details": "72 h, read-out: MHK"}, "Rhinovirus II": {"system": "Rhinovirus II", "assay": "Antiviral activity in cell culture (CPE, neutral red uptake)", "type": "cell-based", "details": "Enterovirus; Rhino. II; HeLa or Vero cells, 72 h; MHK = concentration at which about 50 % of the cells survived the infection"}, "Herpes I": {"system": "Herpes I", "assay": "Antiviral activity in cell culture (CPE, neutral red uptake)", "type": "cell-based", "details": "HeLa or Vero cells, 72 h, MHK = concentration at which about 50 % of the cells survived the infection"}},
  "data": [
    {"smiles": "CC(=O)OC1CCC(O)C(O)CC(=O)OC(C)C1", "note": "(stereo not shown) [Verbindung 4, 8-Acetyloxy-4,5-dihydroxy-10-methyl-1-oxa-cyclodecan-2-on]", "values": [
      {"measurement": "activity at 0.01 µM", "setting": "Cholesterinbiosynthese", "result": 45, "unit": "%"}
    ]},
    {"smiles": "CC(=O)OC1/C=C/C(OC(C)=O)C(OC(C)=O)CC(=O)OC(C)C1", "note": "(stereo not shown) [Verbindung 6, 10-Methyl-1-oxa-4,5,8-triacetyloxy-6-cyclodecen-2-on]", "values": [
      {"measurement": "MNTC at 72 h", "setting": "in vitro", "result": 133, "unit": "µg/mL"},
      {"measurement": "EC50", "setting": "Vaccina", "result": 0.49, "unit": "µg/mL"},
      {"measurement": "EC50", "setting": "Herpes II", "result": 0.55, "unit": "µg/mL"},
      {"measurement": "EC50", "setting": "Influenza A", "result": 14, "unit": "µg/mL"},
      {"measurement": "activity at 10 µM", "setting": "Cholesterinbiosynthese; Konzentration 10⁻⁵ M", "result": 32, "unit": "%"},
      {"measurement": "activity at 0.1 µM", "setting": "Cholesterinbiosynthese; Konzentration 10⁻⁷ M", "result": 30, "unit": "%"},
      {"measurement": "EC50", "setting": "Rhinovirus II", "result": 44.4, "unit": "µg/mL"},
      {"measurement": "EC50", "setting": "Herpes I", "result": 0.55, "unit": "µg/mL"}
    ]},
    {"smiles": "CC[C@H](C)C(=O)O[C@H]1C[C@@H](C)C=C2C=C[C@H](C)[C@H](CC[C@@H]3C[C@@H](O)CC(=O)O3)[C@H]21", "note": "[Lovastatin, reference compound]", "values": [
      {"measurement": "activity at 0.01 µM", "setting": "Cholesterinbiosynthese", "result": 55, "unit": "%"}
    ]},
    {"smiles": "CC1CC(O)C2OC2C(O)C(O)CC(=O)O1", "note": "(stereo not shown) [Verbindung 5, 2-Carbonyl-10-methyl-1-oxa-4,5,8-trihydroxy-6-cyclodecenoxid]", "values": [
      {"measurement": "activity at 0.01 µM", "setting": "Cholesterinbiosynthese", "result": 33, "unit": "%"}
    ]},
    {"smiles": "CC1CC(O)CCC(O)C(O)CC(=O)O1", "note": "(stereo not shown) [Verbindung 15, 10-Methyl-1-oxa-4,5,8-trihydroxy-cyclodecan-2-on]", "values": [
      {"measurement": "activity at 0.01 µM", "setting": "Cholesterinbiosynthese", "result": 73, "unit": "%"}
    ]},
    {"smiles": "CC1CC(O[C@H]2O[C@H](COCc3ccccc3)[C@@H](OCc3ccccc3)[C@H](OCc3ccccc3)[C@H]2OCc2ccccc2)CCC2OC(C)(C)OC2CC(=O)O1", "note": "(stereo partly drawn) [Verbindung 1, 4,5-Dihydroxy-O-isopropyliden-10-methyl-1-oxa-8(2,3,4,6-tetra-O-benzyl-α-D-glucopyranosyl-oxy)-2-cyclodecanon]", "values": [
      {"measurement": "activity at 0.01 µM", "setting": "Cholesterinbiosynthese", "result": 41, "unit": "%"}
    ]},
    {"smiles": "CC1CC(OC=O)C=CC(O)C(O)CC(=O)O1", "note": "(stereo not shown) [Verbindung 8, 4,5-Dihydroxy-8-formyl-oxy-10-methyl-1-oxa-6-cyclodecen-2-on]", "values": [
      {"measurement": "activity at 0.01 µM", "setting": "Cholesterinbiosynthese", "result": 67, "unit": "%"}
    ]},
    {"smiles": "COC1C=CC(OC)C(OC)CC(=O)OC(C)C1", "note": "(stereo not shown) [Verbindung 3, 10-Methyl-4,5,8-trimethoxy-1-oxa-6-cyclodecen-2-on]", "values": [
      {"measurement": "activity at 1 µM", "setting": "Cholesterinbiosynthese; Konzentration 10⁻⁶ M", "result": 28, "unit": "%"},
      {"measurement": "activity at 0.01 µM", "setting": "Cholesterinbiosynthese", "result": 33, "unit": "%"}
    ]}
  ]
}
